Values quoted from earlier work in patent publication US10950327B2, “Methods and tools for detecting, diagnosing, predicting, prognosticating, or treating a neurobehavioral phenotype in a subject” (BlackThorn Therapeutics, Inc., priority 2017, dated 2021).

Experiments:
[1] = system: mean functional connectivity (Global Brain Connectivity, GBC); conditions: healthy human subjects
[2] = system: patients with schizophrenia
[3] = target: muscarinic M3 (CHRM3) receptor (Homo sapiens, UniProt P20309)
5HT6 receptors = 5HT6 receptors (Homo sapiens, UniProt P50406)
[4] = in vivo

Sequence of 5HT6 receptors (P50406 whole entry): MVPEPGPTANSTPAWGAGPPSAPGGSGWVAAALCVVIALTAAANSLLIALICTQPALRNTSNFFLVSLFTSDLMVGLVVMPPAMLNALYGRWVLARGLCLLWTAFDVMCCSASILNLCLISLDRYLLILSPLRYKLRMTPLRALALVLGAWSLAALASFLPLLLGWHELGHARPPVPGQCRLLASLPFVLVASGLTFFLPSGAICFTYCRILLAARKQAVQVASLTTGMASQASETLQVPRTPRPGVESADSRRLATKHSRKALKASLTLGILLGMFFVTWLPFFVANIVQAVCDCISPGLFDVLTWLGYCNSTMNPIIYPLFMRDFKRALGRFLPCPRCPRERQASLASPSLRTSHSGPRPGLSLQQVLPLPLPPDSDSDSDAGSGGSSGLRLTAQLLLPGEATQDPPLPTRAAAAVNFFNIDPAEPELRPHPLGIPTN
Sequence of muscarinic M3 (CHRM3) receptor (P20309 whole entry): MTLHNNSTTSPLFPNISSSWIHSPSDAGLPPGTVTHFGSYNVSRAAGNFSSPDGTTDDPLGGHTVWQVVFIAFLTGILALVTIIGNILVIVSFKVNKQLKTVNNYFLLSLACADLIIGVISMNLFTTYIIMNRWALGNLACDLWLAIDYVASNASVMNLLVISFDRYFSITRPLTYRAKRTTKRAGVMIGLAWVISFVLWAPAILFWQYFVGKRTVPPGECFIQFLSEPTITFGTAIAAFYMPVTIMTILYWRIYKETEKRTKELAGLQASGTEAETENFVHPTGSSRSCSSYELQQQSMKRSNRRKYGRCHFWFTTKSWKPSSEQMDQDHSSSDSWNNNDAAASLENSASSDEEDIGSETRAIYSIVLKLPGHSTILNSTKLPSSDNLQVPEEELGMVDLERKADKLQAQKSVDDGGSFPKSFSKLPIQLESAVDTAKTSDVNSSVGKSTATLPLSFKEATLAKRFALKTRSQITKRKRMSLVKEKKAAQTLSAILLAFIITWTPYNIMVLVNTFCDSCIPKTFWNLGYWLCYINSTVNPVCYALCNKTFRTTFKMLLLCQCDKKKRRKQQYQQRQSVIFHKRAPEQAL

## CCN(CC)C(=O)[C@@H]1C=C2c3cccc4[nH]cc(c34)C[C@H]2N(C)C1 [LSD, lysergic acid diethylamide]
[1]; acute administration, fMRI-derived cortical map
  change in mean functional connectivity (Global Brain Connectivity, GBC): large increase in occipital visual cortex

## Cc1nc2cccc(C(F)(F)F)c2c(=O)n1-c1ccc(OCCCN2CCCC2)cc1 [MK-0249]
[2]
  improvement of cognitive deficits: failed to improve cognitive deficits

## O=C1Nc2ccc(Cl)cc2[C@@](C#CC2CC2)(C(F)(F)F)O1 [efavirenz]
[3]
  activity at muscarinic M3 (CHRM3) receptor: antagonist activity
5HT6 receptors
  activity at 5HT6 receptors: inverse agonist activity
HIV-1
  suppression of HIV-1: effective in suppressing HIV-1
[4]
  risk of neuropsychiatric symptoms: increase the risk of neuropsychiatric symptoms

## O=C(c1ccc(F)cc1)C1CCN(CCn2c(=O)[nH]c3ccccc3c2=O)CC1 [ketanserin]
[1]; pre-administration before LSD
  effect on LSD-induced neural change and behavioral effects: blocked
